# Source: publication PMC5796017, “Enantiomeric Effect of D-Amino Acid Substitution on the Mechanism of Action of α-Helical Membrane-Active Peptides” (International Journal of Molecular Sciences, 2017)
# Tests used:
# S. epidermidis ATCC12228 = test: Antimicrobial activity, microtiter dilution MIC; format: cell-based, Staphylococcus epidermidis; conditions: G+; MH medium, 5 × 10^5 CFU/mL, 37 °C, 24 h, triplicate
# Experimental: (§1) The antimicrobial activity of the peptides was determined by the standard microtiter dilution method and indicated as MIC (minimal inhibitory concentration) as described previously. Briefly, bacteria were cultured in Mueller–Hinton (MH) medium overnight at 37 °C, diluted to a final inoculum of 5 × 10^5 colony-forming units (CFU)/mL with MH and loaded into 96-well microtiter plates (90 μL/well) with serial dilution of peptides (10 μL/well), with a further incubation at 37 °C for 24 h. MIC was expressed as the lowest peptide concentration that inhibited the growth of bacteria. The antimicrobial assays were repeated in triplicate.
# MIA PaCa-2 = test: MTT cell viability assay; format: cell-based, human; conditions: MIA PaCa-2, MTT, 24 h; mean ± SEM of three independent determinations
# Experimental: (§2) HeLa, MIA PaCa-2, HPAC, and Bxpc-3 cells were maintained in Dulbecco’s modified Eagle medium) with 10% fetal bovine serum, penicillin (100 U/mL), and streptomycin ([…]) in a humid atmosphere at 37 °C with 5% CO2. The effect of the peptides on the survival of HeLa, MIA PaCa-2, HPAC, and Bxpc-3 cells was determined by 3-(4,5-dimethyl-2-thiazolyl)-2,5-diphenyl-2H-tetrazolium bromide (MTT) assay, as described in a previous study. Briefly, cells were seeded in 96-well plates at a density of 5000 per well. After overnight incubation, cells were incubated, in the absence, or presence of various concentrations of peptides for 24 h. Then, the formazan crystals formed by MTT were dissolved with dimethyl sulfoxide (DMSO) and the absorbance was determined at 492 nm with a microplate reader (GF-M3000; Gaomi Caihong Analytical Instruments Co., Shandong, China). The results were expressed as IC50 values, representing the concentration at which cell viability was reduced by 50%. The cytotoxicity assays were repeated in triplicate.
# BxPC-3 = test: MTT cell viability assay; format: cell-based, human; conditions: BxPC-3, MTT, 24 h; mean ± SEM of three independent determinations
# Experimental: as §2
# HeLa = test: MTT cell viability assay; format: cell-based, human; conditions: 24 h, mean ± SEM of three independent determinations
# Experimental: as §2
# HPAC = test: MTT cell viability assay; format: cell-based, human; conditions: 24 h, mean ± SEM of three independent determinations
# Experimental: as §2
# P. aeruginosa ATCC27853 = test: Antimicrobial activity, microtiter dilution MIC; format: cell-based, Pseudomonas aeruginosa; conditions: G−; MH medium, 5 × 10^5 CFU/mL, 37 °C, 24 h, triplicate
# Experimental: as §1
# S. aureus ATCC25923 = test: Antimicrobial activity, microtiter dilution MIC; format: cell-based, Staphylococcus aureus; conditions: G+; MH medium, 5 × 10^5 CFU/mL, 37 °C, 24 h, triplicate
# Experimental: as §1
# [1] = Circular dichroism (CD) secondary structure; format: physicochemical; conditions: for [θ]222, benign / [θ]222, 50% TFE: CD, 75 μM peptide, 25 °C; for [θ]222, benign: KP buffer (100 mM KCl, 50 mM KH2PO4/K2HPO4, pH 7.4); for [θ]222, 50% TFE / α-Helix (%), 50% TFE (relative helicity): KP buffer with 50% TFE; for α-Helix (%), 50% TFE (relative helicity) / α-Helix (%), benign: relative to molar ellipticity of V13K in 50% TFE; for α-Helix (%), benign: KP buffer
# Description: The influence of the amino acid substitutions on the peptide secondary structure were investigated using circular dichroism (CD) spectroscopy under benign conditions (KP buffer) and under conditions designed to mimic the hydrophobic environment of the membrane (KP buffer with 50% TFE). D-amino acid substitutions reduced the helicity of the peptide analogs relative to that of peptide V13K, in both KP buffer and KP buffer with 50% TFE. […] As shown in Table 2 and Figure S1, the values of the relative helicity of peptides with polar face substitutions are in the order of K14D (76.99%) > S11D/K14D (51.33%) > S11D/K14D/T15D (38.67%). Similarly, the relative helicity of the peptides with substitutions on the non-polar face follows the same trend: A12D (70.83%) > F9D/A12D (38.26%) > F9D/A12D/V16D (36.41%). Since the values of the relative helicity of the peptides with D-amino acid substitutions on the non-polar face were less than those peptide analogs with the same number of D-amino acid substitutions on the polar face, it is clear that the amino acid residues on the non-polar face may be more important for stabilizing the α-helical structure than residues on the polar face.
# The secondary structures of the peptides were examined using a Jasco J-810 CD spectrometer (Jasco, Easton, MD, USA) at 25 °C as described previously. […] The mean residue molar ellipticities were calculated according to the equation [θ] = θ/10lCMn, in which, θ represents the ellipticity in millidegrees, l is the optical path length of the cuvette in centimeters, CM is the peptide concentration in mol/L, and n is the number of residues in the peptide. The mean residue molar ellipticities at 222 nm, [θ]222 (degree·cm^2·dmol^−1), were used to calculate the relative helical content of the peptides.
# [2] = RP-HPLC retention time as relative hydrophobicity; format: physicochemical; conditions: 25 °C, used by the paper as measure of relative hydrophobicity
# Experimental: The RP-HPLC retention time has been widely used to represent the relative hydrophobicity of peptides in many studies.The relative hydrophobicity of the peptides was determined by the RP-HPLC retention times at 25 °C. The change in hydrophobicity of the peptides caused by D-amino acid substitutions was mainly due to the disruption of the helical structure.
# E. coli ATCC25922 = test: Antimicrobial activity, microtiter dilution MIC; format: cell-based, Escherichia coli; conditions: G−; MH medium, 5 × 10^5 CFU/mL, 37 °C, 24 h, triplicate
# Experimental: as §1
# [3] = tested on: human red blood (hRBC) cells; test: Hemolytic activity assay; format: cell-based; conditions: 2% human RBC in PBS, 37 °C, 2 h, absorbance 578 nm, triplicate
# Experimental: The […] of the peptides was measured by a hemolytic activity assay as described previously. Briefly, healthy human RBCs were collected using an anticoagulation tube with EDTAK2 and centrifuged at 1000 rpm for 5 min. The erythrocytes were washed three times, then diluted to a concentration of 2% in phosphate-buffered saline (PBS). The peptides were serially diluted in PBS and 70 μL of the peptide solutions and 2% RBC suspension were added simultaneously to each well of a 96-well plate (round bottom) for a further incubation at 37 °C for 2 h. Then, the plates were centrifuged for 10 min at 3000 rpm and the supernatant (90 μL) was transferred to a 96-well plate (flat bottom). The absorbance of the supernatant was measured on a microplate reader at 578 nm. Erythrocytes in PBS and distilled water were used as the negative (0%) and positive (100%) controls, respectively. The hemolytic activity was calculated as the percentage of experimental group over positive control (100%), after subtraction of negative control (0%). The hemolytic assays were repeated in triplicate.
Structure (SMILES),MIC (S. epidermidis ATCC12228) [µM],IC50 (MIA PaCa-2) [µM],IC50 (BxPC-3) [µM],IC50 (HeLa) [µM],IC50 (HPAC) [µM],MIC (P. aeruginosa ATCC27853) [µM],MIC (S. aureus ATCC25923) [µM],"[θ]222, benign [1] [degree·cm^2·dmol^−1]","[θ]222, 50% TFE [1]","α-Helix (%), 50% TFE (relative helicity) [1] [%]","α-Helix (%), benign [1] [%]","tR (RP-HPLC retention time), relative hydrophobicity [2] [min]",MIC (E. coli ATCC25922) [µM],MHC (minimal hemolytic concentration) [3] [µM]
CC[C@H](C)[C@H](NC(=O)[C@H](C)NC(=O)[C@H](CCCCN)NC(=O)[C@H](CC(C)C)NC(=O)[C@H](C)NC(=O)[C@@H](NC(=O)[C@H](Cc1c[nH]cn1)NC(=O)[C@H](CC(C)C)NC(=O)[C@@H](NC(=O)[C@@H](NC(=O)[C@H](CCCCN)NC(=O)[C@H](CCCCN)NC(=O)[C@@H](C)NC(=O)[C@H](CO)NC(=O)[C@H](CCCCN)NC(=O)[C@H](Cc1ccccc1)NC(=O)[C@@H](NC(=O)[C@H](CCCCN)NC(=O)[C@H](CC(C)C)NC(=O)[C@H](Cc1ccccc1)NC(=O)[C@H](CO)NC(=O)[C@H](CCCCN)NC(=O)[C@H](Cc1c[nH]c2ccccc12)NC(=O)[C@H](CCCCN)NC(C)=O)[C@@H](C)O)[C@@H](C)O)C(C)C)[C@@H](C)O)C(=O)N[C@@H](CO)C(=O)N[C@@H](CO)C(N)=O [Peptide A12D],16,29.9 ± 4.8,45.1 ± 1,28.8 ± 0.8,15.5 ± 1.7,16,64,−4130.9,"−35,785.1 degree·cm^2·dmol^−1",70.83,8.2,41.46,32,125
CC[C@H](C)[C@H](NC(=O)[C@H](C)NC(=O)[C@H](CCCCN)NC(=O)[C@H](CC(C)C)NC(=O)[C@H](C)NC(=O)[C@@H](NC(=O)[C@H](Cc1c[nH]cn1)NC(=O)[C@H](CC(C)C)NC(=O)[C@@H](NC(=O)[C@H](NC(=O)[C@@H](CCCCN)NC(=O)[C@H](CCCCN)NC(=O)[C@H](C)NC(=O)[C@H](CO)NC(=O)[C@H](CCCCN)NC(=O)[C@H](Cc1ccccc1)NC(=O)[C@@H](NC(=O)[C@H](CCCCN)NC(=O)[C@H](CC(C)C)NC(=O)[C@H](Cc1ccccc1)NC(=O)[C@H](CO)NC(=O)[C@H](CCCCN)NC(=O)[C@H](Cc1c[nH]c2ccccc12)NC(=O)[C@H](CCCCN)NC(C)=O)[C@@H](C)O)[C@H](C)O)C(C)C)[C@@H](C)O)C(=O)N[C@@H](CO)C(=O)N[C@@H](CO)C(N)=O [K14D/T15D],16,47.1 ± 5.3,24.1 ± 5.5,31.6 ± 2.1,22.5 ± 0.5,32,64,−1862.4,"−28,551.5 degree·cm^2·dmol^−1",56.51,3.7,40.41,64,250
